Type in all cases: cell-based
The subject of assay [1] is human ovarian cancer (SKOV3) cells. Kind of assay: MTT tumor cell growth inhibition, human ovarian cancer (SKOV3). As to conditions: SKOV3, 48 h culture, MTT method, read-out: IC50 value of target compound against cancer cell proliferation, SKOV3. As for the experimental part: (§1) Dissolve CHJ compound series with dimethyl sultbxide (DMSO, final concentration 0.4%), and use RPMI-1640 culture medium containing 15% fetal calf serum to prepare 1 mg/mL solution for future use. During drug administration in groups, use the culture medium to dilute it to the concentration needed.
(§2) Cell lines: human lung cancer (A549), Inman ovarian cancer (SKOV3), human melanoma (A375) and human colon cancer (LOVO) cell lines, all purchased from the Cell Bank of the Chinese Academy of Sciences, DMEM containing 15% fetal bovine serum (High Glucose) culture medium, placed in a 37° C., 5% CO2 incubator.
(§3) MTT is an oxidizing yellow dye with the chemical name of 3-(4,5-dimethyl-2-thiazolyl)-2,5-diphenyl-2-H-tetrazoliumbromide tetrazole bromide. The MMT method, also known as the MTT colorimetric method, can test the survival and growth of cells. The method is simple and easily accessible and often used to screet the substance with cytotoxic activity. The basic principle of testing, is that succinodehydrogenase can reduce exogenous MIT so that MTT is reduced to blueviolet crystal Formazan insoluble to water. The crystal deposits in cells. The succinodehydrogenase exists in the mitochondria of living cells, not in the dead cells. Therefore, the chromogenic reaction can only take place in living cells. Then, dissolve the blueviolet crystal Formazan contained in cells with dimethyl sulfoxide (DMSO), and measure its absorbancy with microplate reader so that the count of living cells is reflected indirectly. Within the scope of certain cell count, the amount of blueviolet crystal Formazan formed is positively correlated to the count of living cells.
(§4) Human lung cancer (A549), human ovarian cancer (SKOV3), human melanoma (A375) and human colon cancer (LOVO) ceilsare all adherent. Based on the growth rate of tumor cells, wash the adherent tumor cells in the logarithmic phase and digest them in 0.25% EDTA pancreatic enzyme. Adjust the cell count to 1×10^5/mL and inoculate the cells in 96-pore plate, each pore containing 100 μL. Culture the cells in the 37° C. CO2 incubator, and administer the drug 24 h later. Add pharmaceutical (CJH compound series) of different concentrations to the administration group. Set up 5 dosage groups for each pharmaceutical, respectively 100, 10, 1, 0.1, 0.01 μmol/L. Set up three complex pores for each concentration. Set up blank control, DMSO (0.8%) solvent control and cis-platinum positive control. After 48 h of culture in the 37 ° C. incubator containing 5% CO2, measure the OD value through MTT method and calculate the cell inhibition ratio.
(§5) After 48 h of culture of human lung cancer (A549), human ovarian cancer (SKOV3). human melanoma (A375) and human colon cancer (LOVO) cells, stop it and add 10 μL 0.5% MTT solution to each pore. Place it in the CO2 incubator for 4 h. Remove the liquid from each pore, respectively add 0.2 mL DMSO solution, and oscillate it adequately on the table concentrator under low frequency so that the blueviolet crystal Formazan is dissolved adequately. Place it in the microplate reader and record the OD value at the wavelength of […]. Calculate the average OD value of three parallel pores of different concentrations, and calculate the cell inhibition ratio and IC50 of each tested pharmaceutical under different concentrations based on the average.
(§6) Inhibition ratio (%)=[1-tested sample OD/negative control group OD]×100%.
Background: Formazan colour is commonly taken as a measure of viable cells.

The test system of assay [2] is human colon cancer (LOVO) cells. Kind of assay: MTT tumor cell growth inhibition, human colon cancer (LOVO). As to conditions: 48 h culture, MTT method, read-out: IC50 value of target compound against cancer cell proliferation, LOVO. On the procedure:
as §1, §2, §3, §4, §5, §6

For assay [3], the system named is human lung cancer (A549) cells. Kind of assay: MTT tumor cell growth inhibition, human lung cancer (A549). Conditions: A549, 48 h culture, MTT method, read-out: IC50 value of target compound against cancer cell proliferation, A549. On the procedure:
as §1, §2, §3, §4, §5, §6

Assay [4] relates to human melanoma (A375) cells. Kind of assay: MTT tumor cell growth inhibition, human melanoma (A375). As to conditions: A375, 48 h culture, MTT method, read-out: IC50 value of target compound against cancer cell proliferation, A375. As for the experimental part:
as §1, §2, §3, §4, §5, §6

Where two headings read alike, the source gives them in different places.

For `COc1cc(CN(C)CC(O)COc2cc(C(F)(F)F)ccc2C(F)(F)F)ccc1OCCN1CCC(C)CC1` (stereo not shown) [CHJ02050, 1-(2,5-bis(trifluoromethyl)phenoxy)-3-((3-methoxy-4-(2-(4-methylpiperidin-1-yl)ethoxy)benzyl)(methyl)amino)propan-2-ol], the IC50 in assay [1] (Homo sapiens, SK-OV-3) was found to be 4.04 ± 0.06 µM; in assay [2] (Homo sapiens) it was 3.88 ± 1.8 µM; in assay [3] (Homo sapiens), 1.09 ± 1.55 µM; in assay [4] (Homo sapiens, A-375) it was 1.87 ± 0.07 µM.
Consider `CCN(CC)CCOc1ccc(CN(C)CC(O)COc2ccc(F)c(Br)c2)cc1OC` (stereo not shown) [CHJ04092, 1-(3-bromo-4-fluorophenoxy)-3-((4-(2-(diethylamino)ethoxy)-3-methoxybenzyl)(methyl)amino)propan-2-ol], for which the IC50 in assay [1] (Homo sapiens, SK-OV-3) was found to be 34.5 ± 2.7 µM; in assay [2] (Homo sapiens), 47.9 ± 3.43 µM; in assay [3] (Homo sapiens), 30.2 ± 2.76 µM; in assay [4] (Homo sapiens, A-375), 11.2 ± 1.05 µM.
In the case of `CCN(CC)CCOc1ccc(CN(C)CC(O)COc2ccc(Cl)c(Cl)c2)cc1OC` (stereo not shown) [CHJ04091, 1-(3,4-dichlorophenoxy)-3-((4-(2-(diethylamino)ethoxy)-3-methoxybenzyl)(methyl)amino)propan-2-ol], the IC50 is 17.8 ± 3.11 µM in assay [1] (Homo sapiens, SK-OV-3); 10.6 ± 3.2 µM in assay [2] (Homo sapiens); 11.1 ± 1.33 µM in assay [3] (Homo sapiens); 4.01 ± 3.11 µM in assay [4] (Homo sapiens, A-375).
For `COc1cc(CN(C)CC(O)COc2ccc(Cl)cc2Cl)ccc1OCCN1CCC(C)CC1` (stereo not shown) [CHJ04059, 1-(2,4-dichlorophenoxy)-3-((3-methoxy-4-(2-(4-methylpiperidin-1-yl)ethoxy)benzyl) (methyl)amino)propan-2-ol], in that order: 3.26 ± 1.21 µM, 3.92 ± 0.56 µM, 10.6 ± 3.37 µM and 3.23 ± 0.49 µM.
For `COc1cc(CN(C)CC(O)COc2cccc(Cl)c2)ccc1OCCN1CCC(C)CC1` (stereo not shown) [CHJ04024], in that order: 1.37 ± 0.34 µM, 18.6 ± 3.22 µM, 5.45 ± 1.03 µM and 0.98 ± 0.76 µM.
For `CCOc1ccccc1OCC(O)CN(C)Cc1ccc(OCCN2CCC(C)CC2)c(OC)c1` (stereo not shown) [SAMS10], in that order: 21.07 ± 0.18 µM, 8.48 ± 0.07 µM, 14.64 ± 0.06 µM and 27.1 ± 0.66 µM.
Consider `COc1cc(CN(C)CC(O)COc2ccc(F)c(Br)c2)ccc1OCCN1CCC(C)CC1` (stereo not shown) [CHJ04020, 1-(3-bromo-4-fluorophenoxy)-3-((3-methoxy-4-(2-(4-methylpiperidin-1-yl)ethoxy)benzyl)(methyl)amino)propan-2-ol], for which the IC50 in assay [1] (Homo sapiens, SK-OV-3) is 3.4 ± 1.17 µM; in assay [2] (Homo sapiens) it was 3.83 ± 1.8 µM; in assay [3] (Homo sapiens), 1.38 ± 1.14 µM; in assay [4] (Homo sapiens, A-375), 1.6 ± 0.92 µM.
For `COc1cc(CN(C)CC(O)COc2ccc(Cl)c(Br)c2)ccc1OCCN1CCC(C)CC1` (stereo not shown) [CHJ03043, 1-(3-bromo-4-chlorophenoxy)-3-((3-methoxy-4-(2-(4-methylpiperidia-1-yl)ethoxy)benzyl)(methyl)amino)propan-2-ol], in that order: 2.9 ± 0.19 µM, 0.95 ± 0.41 µM, 2.5 ± 1.32 µM and 0.54 ± 0.26 µM.
For `COc1cc(CN(C)CC(O)COc2ccccc2C(C)C)ccc1OCCN1CCC(C)CC1` (stereo not shown) [CHJ03004, 1(2-isopropylphenoxy)-3-((3-methoxy-4-(2-(4-methylpiperidin-1yl)ethoxy)benzyl) (methyl)amino)propan-2-ol], in that order: 6.19 ± 0.25 µM, 2.54 ± 0.1 µM, 2.1 ± 1.25 µM and 0.72 ± 0.8 µM.
Take `COc1cc(CN(C)CC(O)COc2cccc(NC(C)=O)c2)ccc1OCCN1CCC(C)CC1` (stereo not shown) [CHJ04058, N-(3-(2-hydroxy-3((3-methoxy-4-(2-(4-methylpiperidin-1-yl)ethoxy)benzyl)(methyl)amino)propoxy)phenyl)acetamide]: the IC50 is 102 ± 1.48 µM in assay [1] (Homo sapiens, SK-OV-3); 54 ± 2.14 µM in assay [2] (Homo sapiens); 245.3 ± 2.4 µM in assay [3] (Homo sapiens); 56.21 ± 0.55 µM in assay [4] (Homo sapiens, A-375).
`N.N.[Cl][Pt][Cl]` [cisplatin, reference compound]: the IC50 is 1.91 ± 0.43 µM in assay [1], 2.64 ± 1.12 µM in assay [2], 4.21 ± 1.31 µM in assay [3] and 5.91 ± 1.64 µM in assay [4].
As for `COc1cc(CN(C)CC(O)COc2ccc(Cl)cc2)ccc1OCCN1CCC(C)CC1` (stereo not shown) [CHJ04083, 1-(4-chlorophenoxy)-3((3-methoxy-4-(2-(4-methylpiperidin-1-yl)ethoxy)benzyl)(methyl)amino)propan-2-ol], the IC50 in assay [1] (Homo sapiens, SK-OV-3) came to 10.4 ± 1.43 µM; in assay [2] (Homo sapiens), 1.23 ± 0.17 µM; in assay [3] (Homo sapiens), 13.3 ± 2.02 µM; in assay [4] (Homo sapiens, A-375), 2.44 ± 1.03 µM.
`COc1cc(CN(C)CC(O)COc2ccccc2Br)ccc1OCCN1CCC(C)CC1` (stereo not shown) [CHJ03003, 1-(2-bromophenoxy)-3-((3-methoxy-4-(2-(4-methylpiperidin-1-yl)ethoxy)benzyl) (methyl)amino)propan-2-ol]: the IC50 in assay [1] (Homo sapiens, SK-OV-3) worked out at 3 ± 0.99 µM; in assay [2] (Homo sapiens), 0.7 ± 0.26 µM; in assay [3] (Homo sapiens), 6.08 ± 0.9 µM; in assay [4] (Homo sapiens, A-375) it was 5.95 ± 0.42 µM.
For `COc1cc(CN(C)CC(O)COc2cc(Cl)cc(Cl)c2)ccc1OCCN1CCCC1` (stereo not shown) [CHJ04066, 1-(3,5-dichlorophenoxy)-3-((3-methoxy-4-(2-(pyrrolidin-1-yl)ethoxy)benzyl)(methyl)amino)propan-2-ol], in that order: 77.1 ± 4.07 µM, 2.5 ± 0.65 µM, 29.9 ± 2.45 µM and 10.3 ± 1.4 µM.
The corresponding values for `COc1cc(CN(C)CC(O)COc2ccc(Br)c(C(F)(F)F)c2)ccc1OCCn1ccnc1` (stereo not shown) [CHJ04097, 1-((4-(2-(1H-imidazol-1-yl)ethoxy)-3-methoxybenzyl)(methyl)amino)-3-(4-bromo-3-(trifluoromethyl)phenoxy)propari-ol] are 33.6 ± 2.47 µM, 32.1 ± 3.39 µM, 24.4 ± 2.78 µM and 14.8 ± 2.77 µM.
For `COc1cc(CN(C)CC(O)COc2c(Cl)cc(Br)cc2Cl)ccc1OCCN1CCC(C)CC1` (stereo not shown) [CHJ04033, 1-(4-bromo-2,6-dichlorophenoxy)-3-((3-methoxy-4-(2-(4-methylpiperidin-1-yl)ethoxy)benzyl)(methyl)amino)propan-2-ol], in that order: 6.22 ± 3.05 µM, 2.23 ± 1.26 µM, 0.95 ± 0.37 µM and 0.92 ± 0.07 µM.
For the compound `CCN(CC)CCOc1ccc(CN(C)CC(O)COc2cc(C(F)(F)F)ccc2Br)cc1OC` (stereo not shown) [CHJ04090, 1-(2-bromo-5-(trifluoromethyl)phenoxy)-3-((4-(2-(diethylamino)ethoxy)-3-methoxybenzyl)(methyl)amino)propan-2-ol], the IC50 came out at 36.4 ± 2.17 µM in assay [1] (Homo sapiens, SK-OV-3); 34 ± 2.59 µM in assay [2] (Homo sapiens); 35 ± 2.21 µM in assay [3] (Homo sapiens); 11.7 ± 2.12 µM in assay [4] (Homo sapiens, A-375).
As for `COc1cc(CN(C)CC(O)COc2ccc(C)c(Br)c2)ccc1OCCN1CCCC1` (stereo not shown) [CHJ04064, 1-(3-bromo-4-methylphenoxy)-3-((3-methoxy-4-(2-(pyrrolidin-1-yl)ethoxy)benzyl) (methyl)amino)propan-2-ol], the IC50 in assay [1] (Homo sapiens, SK-OV-3) was found to be 17.1 ± 0.24 µM; in assay [2] (Homo sapiens) it was 3.55 ± 2.14 µM; in assay [3] (Homo sapiens), 21.5 ± 3.65 µM; in assay [4] (Homo sapiens, A-375), 9.24 ± 2.65 µM.
The corresponding values for `COc1cc(CN(C)CC(O)COc2cc(Cl)cc(Br)c2)ccc1OCCN1CCC(C)CC1` (stereo not shown) [CHJ04034, 1-(3-bromo-5-chlorophenoxy)-3-((3-methoxy-4-(2-(4-methylpiperidin1-yl)ethoxy)benzyl)(methyl)amino)propan-2-ol] are 3.06 ± 1.1 µM, 1.16 ± 0.94 µM, 0.86 ± 0.45 µM and 0.65 ± 0.14 µM.

The record behind these values is US20240166602A1, “SUBSTITUTED DIARYL COMPOUND AS WELL AS PREPARATION METHOD AND APPLICATION THEREOF” (SHANDONG FIRST MEDICAL UNIV & SHANDONG ACADEMY OF MEDICAL …, priority 2021, published 2024).
